Experimental data as given in PubChem BioAssay AID312 (DTP/NCI, 2004).
Values joined by “and” are separate entries in the source; they are usually repeats but may differ in a detail not shown here. Identical values can stand only once. Inconclusive results and toxic doses are left out.

System: BDF1 mice, C1498 leukemia ip, median survival T/C
Test: NCI In Vivo Anticancer Drug Screen. Data for tumor model C1498 Myeloid Leukemia (intraperitoneal) in B6D2F1 (BDF1) mice
Conditions: endpoint: median survival time, higher = longer survival
Procedure: The antitumor activity of compounds was measured in mice bearing transplantable tumors. Survival or tumor size were measured and the results are expressed as the measurement made in the treated group (T) divided by the measurement made in the vehicle treated control group (C). The tumor model used in this assay is C1498 Myeloid Leukemia (intraperitoneal) in B6D2F1 (BDF1) mice

[1] = dose: 8.0 mg/kg/injection, schedule: Q01DX010 (ip), vehicle: saline
[2] = dose: 16.0 mg/kg/injection, schedule: Q01DX010 (ip), vehicle: saline
[3] = dose: 32.0 mg/kg/injection, schedule: Q01DX010 (ip), vehicle: saline
[4] = dose: 6.25 mg/kg/injection, schedule: Q01DX010 (ip), vehicle: saline
[5] = dose: 12.5 mg/kg/injection, schedule: Q01DX010 (ip), vehicle: saline
[6] = dose: 25.0 mg/kg/injection, schedule: Q01DX010 (ip), vehicle: saline
[7] = dose: 50.0 mg/kg/injection, schedule: Q01DX010 (ip), vehicle: saline
[8] = dose: 100.0 mg/kg/injection, schedule: Q01DX010 (ip), vehicle: saline
[9] = dose: 200.0 mg/kg/injection, schedule: Q01DX010 (ip), vehicle: saline
[10] = dose: 400.0 mg/kg/injection, schedule: Q01DX010 (ip), vehicle: saline
[11] = dose: 0.5 mg/kg/injection, schedule: Q01DX010 (ip), vehicle: saline
[12] = dose: 2.0 mg/kg/injection, schedule: Q01DX010 (ip), vehicle: saline
[13] = dose: 4.0 mg/kg/injection, schedule: Q01DX010 (ip), vehicle: saline
[14] = dose: 125.0 mg/kg/injection, schedule: Q01DX010 (ip), vehicle: saline
[15] = dose: 250.0 mg/kg/injection, schedule: Q01DX010 (ip), vehicle: saline
[16] = dose: 5.0 mg/kg/injection, schedule: Q01DX010 (ip), vehicle: saline
[17] = dose: 10.0 mg/kg/injection, schedule: Q01DX010 (ip), vehicle: saline
[18] = dose: 6.0 mg/kg/injection, schedule: Q01DX010 (ip), vehicle: saline
[19] = dose: 3.13 mg/kg/injection, schedule: Q01DX010 (ip), vehicle: saline

CC[C@]1(O)C[C@H]2CN(CCc3c([nH]c4ccccc34)[C@@](C(=O)OC)(c3cc4c(cc3OC)N(C=O)[C@H]3[C@@](O)(C(=O)OC)[C@H](OC(C)=O)[C@]5(CC)C=CCN6CC[C@]43[C@@H]65)C2)C1
T/C (dose: 1.0 mg/kg/injection, schedule: Q04DX003 (ip), vehicle: saline): 112 % of control
T/C (dose: 1.5 mg/kg/injection, schedule: Q04DX003 (ip), vehicle: saline): 115 % of control
T/C (dose: 2.0 mg/kg/injection, schedule: Q04DX003 (ip), vehicle: saline): 118 % of control

CN(C)c1ccc(Nc2c3ccccc3nc3ccccc23)cc1
T/C (dose: 36.0 mg/kg/injection, schedule: Q01DX010 (ip), vehicle: saline): 118 % of control
T/C (dose: 120.0 mg/kg/injection, schedule: Q01DX010 (ip), vehicle: saline): 86 % of control

Nc1nc(SCc2ccccc2)c2[nH]cnc2n1
T/C [1]: 100 % of control
T/C [2]: 105 % of control
T/C [3]: 105 % of control
T/C (dose: 64.0 mg/kg/injection, schedule: Q01DX010 (ip), vehicle: saline): 90 % of control

CS(=O)(=O)OCCC(=O)N1CCN(C(=O)CCOS(C)(=O)=O)CC1
T/C [4]: 100 % of control and 105 % of control
T/C [5]: 100 % of control and 110 % of control and 118 % of control
T/C [6]: 108 % of control and 109 % of control and 110 % of control
T/C [7]: 104 % of control and 109 % of control
T/C [8]: 109 % of control

C[C@]12C=CC(=O)C=C1CC[C@@H]1[C@@H]2[C@@H](O)C[C@@]2(C)[C@H]1CC[C@]2(O)C(=O)CO
T/C (dose: 12.5 mg/kg/injection, schedule: Q01DX010 (sc), vehicle: steriod suspending solution): 92 % of control
T/C (dose: 25.0 mg/kg/injection, schedule: Q01DX010 (sc), vehicle: steriod suspending solution): 88 % of control
T/C (dose: 50.0 mg/kg/injection, schedule: Q01DX010 (sc), vehicle: steriod suspending solution): 92 % of control
T/C (dose: 100.0 mg/kg/injection, schedule: Q01DX010 (sc), vehicle: steriod suspending solution): 92 % of control

CSc1ncnc2nc[nH]c12
T/C [5]: 100 % of control
T/C [6]: 95 % of control
T/C [7]: 100 % of control
T/C [8]: 100 % of control

CCN(CC)CCNc1ccc(C)c2sc3ccccc3c(=O)c12
T/C [6]: 113 % of control and 118 % of control
T/C [7]: 118 % of control and 122 % of control
T/C [8]: 159 % of control and 172 % of control

Cc1cc2nc3c(=O)[nH]c(=O)nc-3n(CC(O)C(O)C(O)C(O)CO)c2cc1C (centres undefined)
T/C [6]: 100 % of control
T/C [7]: 100 % of control
T/C [8]: 95 % of control
T/C [9]: 91 % of control
T/C [10]: 87 % of control

Nc1nc(=S)c2ncn(C3OC(CO)C(O)C3O)c2[nH]1 (centres undefined)
T/C [11]: 113 % of control
T/C [12]: 100 % of control and 111 % of control
T/C [13]: 100 % of control and 90 % of control
T/C [1]: 107 % of control

CCOC(N)=O
T/C [14]: 95 % of control and 104 % of control
T/C [15]: 95 % of control and 100 % of control
T/C (dose: 500.0 mg/kg/injection, schedule: Q01DX010 (ip), vehicle: saline): 95 % of control and 109 % of control

O=NN(CCCl)C(=O)NCCCl
T/C (dose: 30.0 mg/kg/injection, schedule: Q01DX001 (ip), vehicle: saline + alcohol): 420 % of control
T/C (dose: 35.0 mg/kg/injection, schedule: Q01DX001 (ip), vehicle: saline + alcohol): 247 % of control

CO[C@@H]1[C@@H](OC2OC(C)C(OC3CC(C)(O)C(OC(=O)CC(C)C)C(C)O3)C(N(C)C)C2O)[C@@H](CC=O)C[C@@H](C)C(=O)/C=C/C2O[C@H]2C[C@@H](C)OC(=O)C[C@H]1OC(C)=O (some centres undefined)
T/C (dose: 37.5 mg/kg/injection, schedule: Q01DX010 (ip), vehicle: saline): 109 % of control and 91 % of control
T/C (dose: 75.0 mg/kg/injection, schedule: Q01DX010 (ip), vehicle: saline): 100 % of control and 91 % of control
T/C (dose: 150.0 mg/kg/injection, schedule: Q01DX010 (ip), vehicle: saline): 95 % of control and 90 % of control
T/C (dose: 300.0 mg/kg/injection, schedule: Q01DX010 (ip), vehicle: saline): 91 % of control and 90 % of control

C=CC(CN1CC1)OC(C)=O (centres undefined)
T/C [12]: 104 % of control
T/C [13]: 122 % of control
T/C [2]: 104 % of control

Nc1nc(F)nc2c1ncn2C1OC(CO)C(O)C1O (centres undefined)
T/C [11]: 100 % of control
T/C (dose: 1.0 mg/kg/injection, schedule: Q01DX010 (ip), vehicle: saline): 100 % of control and 105 % of control and 108 % of control
T/C [12]: 100 % of control and 105 % of control and 108 % of control
T/C [13]: 100 % of control and 108 % of control and 110 % of control

CC(=O)Nc1ccc2nc3ccc(NC(C)=O)cc3[n+](-c3ccccc3)c2c1
T/C [6]: 107 % of control
T/C [7]: 96 % of control
T/C [8]: 88 % of control
T/C [9]: 88 % of control

CC[n+]1c(-c2ccccc2)c2cc(N)ccc2c2ccc(N)cc21
T/C (dose: 1.25 mg/kg/injection, schedule: Q01DX010 (ip), vehicle: saline): 110 % of control
T/C (dose: 2.5 mg/kg/injection, schedule: Q01DX010 (ip), vehicle: saline): 105 % of control and 109 % of control
T/C [16]: 100 % of control and 110 % of control
T/C [17]: 100 % of control and 110 % of control
T/C (dose: 20.0 mg/kg/injection, schedule: Q01DX010 (ip), vehicle: saline): 100 % of control

N=C(N)c1ccc(Nc2ccc(C(=N)N)cc2)cc1
T/C (dose: 1.5 mg/kg/injection, schedule: Q01DX010 (ip), vehicle: saline): 100 % of control
T/C (dose: 3.0 mg/kg/injection, schedule: Q01DX010 (ip), vehicle: saline): 90 % of control
T/C [18]: 86 % of control
T/C (dose: 12.0 mg/kg/injection, schedule: Q01DX010 (ip), vehicle: saline): 86 % of control

Clc1ncnc2nc[nH]c12
T/C (dose: 7.5 mg/kg/injection, schedule: Q01DX010 (ip), vehicle: saline): 95 % of control and 100 % of control
T/C (dose: 15.0 mg/kg/injection, schedule: Q01DX010 (ip), vehicle: saline): 95 % of control and 90 % of control
T/C (dose: 30.0 mg/kg/injection, schedule: Q01DX010 (ip), vehicle: saline): 104 % of control and 90 % of control
T/C (dose: 60.0 mg/kg/injection, schedule: Q01DX010 (ip), vehicle: saline): 95 % of control

C#CCN(C)Cc1ccccc1
T/C [6]: 104 % of control
T/C [7]: 100 % of control and 90 % of control
T/C [8]: 90 % of control
T/C [9]: 100 % of control and 90 % of control

COC(=O)C[C@](O)(CCCC(C)(C)O)C(=O)O[C@@H]1C(OC)=C[C@]23CCCN2CCc2cc4c(cc2[C@H]13)OCO4
T/C (dose: 1.5 mg/kg/injection, schedule: Q01DX009 (ip), vehicle: acid diluted with saline): 96 % of control
T/C (dose: 2.0 mg/kg/injection, schedule: Q01DX009 (ip), vehicle: acid diluted with saline): 91 % of control

O=C(Nc1ccc(C2=NCCN2)cc1)c1ccc(C(=O)Nc2ccc(C3=NCCN3)cc2)c([N+](=O)[O-])c1
T/C [18]: 96 % of control and 119 % of control
T/C [1]: 100 % of control
T/C (dose: 18.0 mg/kg/injection, schedule: Q01DX010 (ip), vehicle: saline): 103 % of control

O=c1[nH]c(=O)n(C2CC(O)C(CO)O2)cc1F (centres undefined)
T/C [16]: 109 % of control
T/C [17]: 115 % of control and 118 % of control
T/C (dose: 40.0 mg/kg/injection, schedule: Q01DX010 (ip), vehicle: saline): 154 % of control
T/C (dose: 80.0 mg/kg/injection, schedule: Q01DX010 (ip), vehicle: saline): 107 % of control

CN(C)/N=N/c1nc[nH]c1C(N)=O
T/C [6]: 108 % of control
T/C [7]: 112 % of control
T/C [8]: 158 % of control
T/C [9]: 158 % of control and 159 % of control
T/C [10]: 118 % of control

O=C(Nc1ccc(C2=NCCN2)cc1)c1cccc(C(=O)Nc2ccc(C3=NCCN3)cc2)c1
T/C [1]: 92 % of control and 96 % of control
T/C [2]: 96 % of control and 103 % of control
T/C [3]: 115 % of control and 117 % of control

COc1ccc2c(c1OC)C(=O)O[C@@H]2[C@H]1c2c(cc3c(c2OC)OCO3)CCN1C
T/C (dose: 15.6 mg/kg/injection, schedule: Q01DX010 (ip), vehicle: saline): 100 % of control
T/C (dose: 31.3 mg/kg/injection, schedule: Q01DX010 (ip), vehicle: saline): 95 % of control and 100 % of control (2×)
T/C (dose: 62.5 mg/kg/injection, schedule: Q01DX010 (ip), vehicle: saline): 87 % of control and 90 % of control (2×)
T/C [14]: 86 % of control and 87 % of control and 90 % of control
T/C [15]: 90 % of control

O=C(O)CCCc1ccc(N(CCCl)CCCl)cc1
T/C [19]: 110 % of control
T/C [4]: 120 % of control

C[C@H]1C(=O)O[C@@H]2CCN3CC=C(COC(=O)[C@](C)(O)[C@@]1(C)O)[C@H]23
T/C [19]: 100 % of control and 103 % of control
T/C [4]: 100 % of control
T/C [5]: 95 % of control and 107 % of control
T/C [6]: 95 % of control and 96 % of control
